Test results: the supplement of paper PMC11061612

Key:
[1] = test system: OVKATE (Ovarian Carcinoma); experiment: combination Emax (second highest fraction inhibited in the dose matrix, 72 h); higher = more inhibition; extreme values may be limits of the assay
In short: (§1)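 After 24 hours at 37°C and 5% CO2 in 1536-well plates, cells in DMEM/F12 or RPMI plus 10% FBS received two-drug dose matrices for 72 hours. Viability came from CellTiter-Glo 2.0 luminescence and was scaled as inhibition, anchored at 0 by vehicle wells and at 1 by blank wells. Combination Emax is taken as the second-highest inhibition in the matrix, and Bliss excess as the observed combination effect less EA + EB − EA·EB, with EA and EB the single-agent effects.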

[2] = test system: NCI-H2023 (Non-Small Cell Lung Carcinoma); experiment: as above
In short: as §1

[3] = test system: SBC-3 (Small Cell Lung Carcinoma); experiment: as above
In short: as §1

[4] = test system: SW1463 (Colorectal Carcinoma); experiment: as above
In short: as §1

[5] = test system: NTERA-2-cl-D1 (Other Solid Carcinomas); experiment: as above
In short: as §1

[6] = test system: GCIY (Gastric Carcinoma); experiment: as above
In short: as §1

[7] = test system: MRK-nu-1 (Breast Carcinoma); experiment: Bliss excess, mean over the matrix (fraction); higher = more synergy
In short: as §1

[8] = test system: NCI-H2452 (Mesothelioma); experiment: as above
In short: as §1

[9] = test system: RPMI-8402 (T-Lymphoblastic Leukemia); experiment: as above
In short: as §1

[10] = test system: NCI-H2023 (Non-Small Cell Lung Carcinoma); experiment: as above
In short: as §1

[11] = test system: A375 (Melanoma); experiment: as above
In short: as §1

[12] = test system: NCI-H1944 (Lung Adenocarcinoma); experiment: combination Emax (second highest fraction inhibited in the dose matrix, 72 h); higher = more inhibition; extreme values may be limits of the assay
In short: as §1

[13] = test system: SBC-5 (Small Cell Lung Carcinoma); experiment: Bliss excess, mean over the matrix (fraction); higher = more synergy
In short: as §1

[14] = test system: SCC90 (Head and Neck Carcinoma); experiment: as above
In short: as §1
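Throughout, for Bliss excess, mean over the matrix: after 72 h of two-drug dosing.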

Row | SMILES | combination Emax [1] | combination Emax [2] | combination Emax [3] | combination Emax [4] | combination Emax [5] | combination Emax [6] | Bliss excess [7] | Bliss excess [8] | Bliss excess [9] | Bliss excess [10] | Bliss excess [11] | combination Emax [12] | Bliss excess [13] | Bliss excess [14]
1 | CN(CCO)CC[C@H](CSc1ccccc1)Nc1ccc(S(=O)(=O)NC(=O)c2ccc(N3CCC([C@@H](O)c4ccccc4-c4ccc(Cl)cc4)CC3)cc2)cc1S(=O)(=O)C(F)(F)F [AZD4320] + CS(=O)(=O)CCNCc1ccc(-c2ccc3ncnc(Nc4ccc(OCc5cccc(F)c5)c(Cl)c4)c3c2)o1 [Lapatinib] (first compound max 1 µM, 7x7, partner max 10 µM) | 0.677 | 0.301 | 0.407 | 0.974 | 0.965 | 0.956 | -0.0167 | -0.019 | 0.0949 | 0.0132 | 0.0275 |  |  | 
2 | CS(=O)(=O)CCNCc1ccc(-c2ccc3ncnc(Nc4ccc(OCc5cccc(F)c5)c(Cl)c4)c3c2)o1 [Lapatinib] + NC1(c2ccc(-c3nc4ccn5c(=O)[nH]nc5c4cc3-c3ccccc3)cc2)CCC1 [MK-2206] (first compound max 10 µM, 7x7, partner max 10 µM) | 0.537 | 0.637 | 0.917 | 0.868 | 0.911 | 0.934 | 0.0505 | -0.0302 | 0.0064 | 0.0246 | -0.0031 | 0.941 | -0.0051 | 0.0358
3 | C[C@@H](Oc1cc(-c2cnn(C3CCNCC3)c2)cnc1N)c1c(Cl)ccc(F)c1Cl [Crizotinib] + Cn1cnc2c(F)c(Nc3ccc(Br)cc3Cl)c(C(=O)NOCCO)cc21 [Selumetinib] (first compound max 10 µM, 7x7, partner max 10 µM) | 0.193 | 0.57 | 0.97 | 0.622 | 0.742 | 0.46 | -0.0633 | -0.0494 | -0.0606 | -0.0007 | 0.0035 |  |  | 
4 | C[C@@H](Nc1cc(F)cc(F)c1)c1cc(C(=O)N(C)C)cc2c(=O)cc(N3CCOCC3)oc12 [AZD8186] + CC(=O)c1c(C)c2cnc(Nc3ccc(N4CCNCC4)cn3)nc2n(C2CCCC2)c1=O [Palbociclib] (first compound max 10 µM, 7x7, partner max 10 µM) | 0.264 | 0.399 | 0.709 | 0.722 | 0.343 | 0.662 | 0.0696 | -0.0353 | 0.0013 | 0.0108 | 0.0781 |  |  | 
5 | C=CCn1c(=O)c2cnc(Nc3ccc(N4CCN(C)CC4)cc3)nc2n1-c1cccc(C(C)(C)O)n1 [AZD1775] + Nc1ccn([C@@H]2O[C@H](CO)[C@@H](O)C2(F)F)c(=O)n1 [Gemcitabine] (first compound max 1 µM, partner max 0.3 µM) | 0.261 | 0.656 | 0.949 | 0.763 | 0.614 | 0.764 | 0.045 | -0.0727 | 0.0141 | 0.0248 | 0.0519 |  |  | 
6 | CC1(C)CCC(CN2CCN(c3ccc(C(=O)NS(=O)(=O)c4ccc(NCC5CCOCC5)c([N+](=O)[O-])c4)c(Oc4cnc5[nH]ccc5c4)c3)CC2)=C(c2ccc(Cl)cc2)C1 [Venetoclax] + CS(=O)(=O)CCNCc1ccc(-c2ccc3ncnc(Nc4ccc(OCc5cccc(F)c5)c(Cl)c4)c3c2)o1 [Lapatinib] (first compound max 1 µM, 7x7, partner max 10 µM) | 0.182 | 0.195 | 0.183 | 0.4 | 0.2 | 0.276 | -0.0243 | -0.0546 | -0.0163 | -0.06 | -0.0207 |  |  | 
7 | CS(=O)(=O)CCNCc1ccc(-c2ccc3ncnc(Nc4ccc(OCc5cccc(F)c5)c(Cl)c4)c3c2)o1 [Lapatinib] + Cn1cnc2c(F)c(Nc3ccc(Br)cc3Cl)c(C(=O)NOCCO)cc21 [Selumetinib] (first compound max 10 µM, 7x7, partner max 10 µM) | 0.31 | 0.297 | 0.321 | 0.868 | 0.339 | 0.543 | 0.0764 | -0.0363 | -0.031 | -0.0391 | -0.0348 |  |  | 
8 | Cc1nc(-c2cn3c(n2)-c2ccc(-c4cnn(C(C)(C)C(N)=O)c4)cc2OCC3)n(C(C)C)n1 [Taselisib] + O=C(Nc1ccc2[nH]nc(-c3ccncc3)c2c1)[C@@H]1CCN(CC(=O)N2CCN(c3ccc(-c4ncccn4)cc3)CC2)C1 [SCH772984] (first compound max 10 µM, 7x7, partner max 5 µM) | 0.423 | 0.665 | 0.76 | 0.798 | 0.64 | 0.888 | 0.0385 | -0.0276 | 0.0802 | -0.0437 | 0.133 |  |  | 
9 | O=C(c1cc(Cc2n[nH]c(=O)c3ccccc23)ccc1F)N1CCN(C(=O)C2CC2)CC1 [Olaparib] + COc1nnc2ccc(N3CCC(c4ccc(OCCN5CCN(C)C(=O)[C@H]5C)cc4)CC3)nn12 [AZD5153] (first compound max 10 µM, 7x7, partner max 1 µM) | 0.264 | 0.344 | 0.703 | 0.561 | 0.649 | 0.487 | 0.0665 | -0.0361 | -0.0277 | -0.0624 | -0.0229 |  |  | 
